Patent US20030113330A1, “Methods for treating pulmonary fibrosis” (priority 1999, published 2003)
Entries after “also recorded” stand apart in the source; their conditions may differ. Where a SMILES comes first, the peptide text is derived from it. The star is where a group is joined. Cbz = O=C(OCc1ccccc1)*; CH2F = FC*

Experiments:
primary rat AEC [1] = assay: Fas ligand-induced apoptosis of primary rat alveolar epithelial cells; format: cell-based; details: lisinopril 500 ng/ml; for inhibition of Fas ligand-induced apoptosis of primary rat AEC (words): captopril, caspase inhibitors 60 uM
Experimental: Lung Cell Isolation and Detection of Apoptosis In Vitro. Primary alveolar epithelial cells (AEC) were isolated from adult male Wistar rats as described above. The primary cells were studied at day two of culture, a time at which they are type II cell-like by accepted morphologic and biochemical criteria, see Paine et al., Am. J. Physiol. […] All cells were seeded in 24-well or 6-well chambers, and all experiments were conducted at subconfluent densities of 80-90% in serum-free Ham's F12 medium. Test reagents were diluted with Ham's F12 medium and were applied for 20 hours at 37° C. in a 5% CO2 incubator.
Detection of apoptotic cells with propidium iodide (PI) was conducted as described above, following digestion of ethanol-fixed cells with DNAse-free RNAse in PBS containing 5 ug/ml PI.
Expression of FAS by alveolar epithelial cells is observed during bleomycin-induced fibrogenesis in mice. See Hagimoto, et al., Am. J. Respir. Cell Mol. Biol. 16:91-101 (1997). […] Apoptosis was detected by quantitation of fragmented nuclei (see above).
Cell Culture and Detection of Apoptosis. The human lung adenocarcinoma cell line A549 was obtained from American Type Culture Collection and cultured in Ham's F12 medium supplemented with 10% fetal bovine serum (FBS). Primary alveolar epithelial cells were isolated from adult male Wistar rats as described earlier (Uhal, B. D., I. Joshi, A. True, S. Mundle, A. Raza, A. Pardo and M. Selman. Fibroblasts isolated after fibrotic lung injury induce apoptosis of alveolar epithelial cells in vitro. Am. J. Physiol. 269:L819-L828, 1995); Wang, R., A. Zagariya, 0. Ibarra-Sunga, C. […] Am. J. Physiol. 276:L885-L889 (1999)). […] All cells were seeded in 24-well or 6-well chambers, and all experiments were conducted at subconfluent densities of 80-90% in serum-free Ham's F12 medium. Test reagents were diluted with serum-free Ham's F12 medium and were applied under serum-free conditions for 20 hours at 37C. in a 5% CO2 incubator. Detection of apoptotic cells with propidium iodide (PI) was conducted as described above Am. J. Physiol. 275:L1013-1017 (1998); Uhal et al., following digestion of ethanol-fixed cells with DNAse-free RNAse in PBS containing 5 μg/ml PI. In all assays, detached cells were retained by centrifugation of the culture vessels during fixation with 70% ethanol, or by retention of culture media and recovery by centrifugation before assay.
Apoptosis was detected by nuclear fragmentation as described above.

A549 cells [2] = assay: Angiotensin II-induced apoptosis in A549 cells (nuclear fragmentation, PI); format: cell-based, human; details: saralasin 50 ug/ml
Experimental: Cell Culture. […] J. Physiol. Suppl. (Oct.) 261:110-117 (1991) and Uhal et al., Am. J. Physiol. 269:[…]-[…] (1995). […] J. Physiol. 272:[…]-[…] (1997). […] J. Physiol. Suppl. (October) 261:110-117 (1991). […] Detection of Apoptosis. […] J. Physiol. […] Assay of Annexin V binding by flow cytometry was performed essentially as described for human lung fibroblasts in Uhal, et al., Am. J. Physiol. 275:[…]-[…] (1998) after trypsinization of cells from culture vessels. Assay of Caspase-3 activity was performed on viable suspension cultures as reported in Uhal, et al., Am. J. Physiol. 275:[…]-1017 (1998). […] For microscopy, cells were cultured on glass cover slips, incubated with test reagents and fixed with 70% ethanol. The fixed cells were immunolabeled overnight at 4° C. with monoclonal antibodies to cytokeratins 7 and 19 (Chemicon International, Temecula, Calif.), and then for one hour at 37° C. with anti-mouse IgG-rhodamine and DNAse-free RNAse (Boehringer Mannheim, Indianapolis, Ind.) The cover slips were then rinsed in distilled water three times and mounted under Fluoromount Solution (Southern Biotechnology Associates, Birmingham, Ala.) containing 5 ug/ml propidium iodide. Photomicroscopy was performed as described in Uhal, et al., Am. J. Physiol. 275:[…]-1017 (1998). […] The absolute values for basal, i.e., 0.0 dose, apoptosis were: A549 serum-free, 2.29±0.33%; […] AEC serum-free: 1.87±0.41%; and AEC+FBS: 1.97±0.37%.

A549 cells [3] = assay: Amiodarone-induced net cell loss in A549 cultures; format: cell-based, human; details: A549
Experimental: (§1) Primary alveolar epithelial cells were isolated from adult male Wistar rats. The primary cells were studied at day two of culture, a time at which they are type II cell-like by accepted morphologic and biochemical criteria. All primary cell preparations were of better than 90% purity assessed by acridine orange staining. All cells were seeded in 24-well or 6-well chambers, and all experiments were conducted at subconfluent densities of 80-90% in serum-free Ham's F12 medium. Test reagents were diluted with Ham's F12 medium and were applied for 20 hours at 37C. in a 5% CO2 incubator.
(§2) In all assays, detached cells were retained by centrifugation of the culture vessel at 300×g for 10 minutes with a centrifuge rotor designed for culture plates. For detection of necrosis (dye exclusion of PI), the PI was added directly to the cell culture medium immediately before centrifugation of the culture vessel. For detection of apoptosis, ethanol was added directly to the cell culture medium to a final concentration of 70% immediately before the centrifugation. Afterward, the ethanol was carefully removed and the total cell population (attached plus sedimented detached cells) were stained with PI as described above.
(§3) Importantly, unattached cells were recovered and included in the analyses, and thus the data represent true loss of cells rather than simple detachment from the substratum.

primary rat AEC [4] = assay: Amiodarone-induced net cell loss in primary rat AEC cultures; format: cell-based; details: primary rat AEC
Experimental: as §1, §2, §3

Compound | inhibition of Fas ligand-induced apoptosis of primary rat AEC (words) (primary rat AEC [1]) | inhibition of ANGII-induced apoptosis of A549 cells (A549 cells [2]) | inhibition of Fas ligand-induced apoptosis of primary rat AEC (words) (primary rat AEC [1]; listed as ZVADfmk) | effect on amiodarone-induced decrease in total cell number (A549 cells [3]) | effect on amiodarone-induced decrease in total cell number (primary rat AEC [4]) | net cell loss abrogated (primary rat AEC [4]) | inhibition at 0.5 µg/mL (primary rat AEC [1]; Rattus norvegicus, Epithelial cell, read-out: inhibition of FASL-induced apoptosis, FASL 25 ng/ml, saralasin 5 mg/ml) | inhibition of FASL-induced apoptosis (primary rat AEC [1]; FASL 25 ng/ml, saralasin 5 mg/ml)
CCc1nc2c(C)cc(C)nc2n1Cc1ccc(-c2ccccc2-c2nn[nH]n2)cc1 [L158809] | could block | could block |  |  |  |  |  | 
COc1ccc2c(c1OCc1ccccc1)C[C@@H](C(=O)O)N(C(=O)C(c1ccccc1)c1ccccc1)C2 [PD126055] | unable to significantly inhibit | unable to significantly inhibit |  |  |  |  |  | 
COC(=O)C[C@H](NC(=O)[C@H](C)NC(=O)[C@@H](NC(=O)OCc1ccccc1)C(C)C)C(=O)CF [ZVAD-fmk, N-benzylcarboxy-Val-Ala-Asp-[O-Me]-CH2F] (Cbz-Val-Ala-Asp(OMe)-CH2F) | comparable efficacy to inhibit apoptosis |  | abrogate | significantly inhibited | significantly inhibited | 75% |  | 
C[C@H](CS)C(=O)N1CCC[C@H]1C(=O)O [captopril] | comparable efficacy to inhibit apoptosis; also recorded: blocked |  |  | significantly inhibited | significantly inhibited |  |  | 
NCCCC[C@H](N[C@@H](CCc1ccccc1)C(=O)O)C(=O)N1CCC[C@H]1C(=O)O [lisinopril] | blocked |  |  |  |  |  | 87% | 
CNCC(=O)N[C@@H](CCCN=C(N)N)C(=O)N[C@H](C(=O)N[C@@H](Cc1ccc(O)cc1)C(=O)N[C@H](C(=O)N[C@@H](Cc1cnc[nH]1)C(=O)N1CCC[C@H]1C(=O)N[C@@H](C)C(=O)O)C(C)C)C(C)C [saralasin] | blocked | completely inhibited |  | significantly inhibited | significantly inhibited |  |  | 92%
